Measured values from PubChem BioAssay (NCI).
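Compound exposure: 48 hours, 5 concentrations, 96-well plates. GI50 marks 50% less growth. TGI: total growth inhibition.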

Tests used:
Test in all cases: NCI-60 cell line screen, 48 h
[1] = system: SNB-75 CNS
[2] = system: MALME-3M melanoma
[3] = system: HCT-15 colon
[4] = system: KM12 colon
[5] = system: SK-MEL-5 melanoma
[6] = system: NCI/ADR-RES ovarian
[7] = system: M14 melanoma
[8] = system: COLO 205 colon
[9] = system: SK-MEL-2 melanoma
[10] = system: SN12C renal
[11] = system: K-562 leukemia
[12] = system: 786-0 renal
[13] = system: UACC-257 melanoma
[14] = system: CCRF-CEM leukemia
[15] = system: MDA-MB-435
[16] = system: LOX IMVI melanoma
[17] = system: A549 NSCLC
[18] = system: ACHN renal
[19] = system: PC-3 prostate
[20] = system: SK-MEL-28 melanoma
[21] = system: HS 578T breast
[22] = system: BT-549 breast
[23] = system: OVCAR-8 ovarian
[24] = system: CAKI-1 renal
[25] = system: NCI-H522 lung
[26] = system: UO-31 renal
[27] = system: SR leukemia
[28] = system: SW-620 colon
[29] = system: SK-OV-3 ovarian
[30] = system: NCI-H23 lung
[31] = system: OVCAR-4 ovarian
[32] = system: SNB-19 CNS
[33] = system: MDA-MB-231 breast
[34] = system: IGROV1 ovarian
[35] = system: RXF 393 renal
[36] = system: HCT-116 colon
[37] = system: U251 CNS
[38] = system: NCI-H226 lung
[39] = system: SF-539 CNS
[40] = system: DU-145 prostate
[41] = system: T-47D breast
[42] = system: A498 renal
[43] = system: SF-268 CNS
[44] = system: HOP-62 NSCLC
[45] = system: OVCAR-3 ovarian
[46] = system: MOLT-4 leukemia
[47] = system: HCC-2998 colon
[48] = system: SF-295 CNS
[49] = system: HOP-92 NSCLC
[50] = system: MCF7 breast
[51] = system: RPMI-8226 leukemia
[52] = system: HT29 colon
[53] = system: UACC-62 melanoma
[54] = system: HL-60(TB) leukemia
[55] = system: TK-10 renal
[56] = system: OVCAR-5 ovarian
[57] = system: NCI-H460 lung
[58] = system: EKVX NSCLC

CNCC#Cc1c(F)ccc2c1/C(=C/c1[nH]ccc1OC)C(=O)N2
GI50 [1]: 0.0786 µM
TGI [1]: 1.81 µM
GI50 [2]: 0.608 µM
TGI [2]: 2.55 µM
GI50 [3]: 0.0866 µM
TGI [3]: 2.78 µM
GI50 [4]: 0.0565 µM
TGI [4]: 2.41 µM
GI50 [5]: 0.21 µM
TGI [5]: 1.42 µM
GI50 [6]: 0.363 µM
TGI [6]: 3.27 µM
GI50 [7]: 0.181 µM
TGI [7]: 1.48 µM
GI50 [8]: 0.113 µM
TGI [8]: 0.48 µM
GI50 [9]: 0.0799 µM
TGI [9]: 0.369 µM
GI50 [10]: 0.118 µM
TGI [10]: 2.86 µM
GI50 [11]: 0.65 µM
TGI [11]: 3.61 µM
GI50 [12]: 0.215 µM
TGI [12]: 3.27 µM
GI50 [13]: 0.619 µM
TGI [13]: 2.91 µM
GI50 [14]: 0.107 µM
TGI [14]: 0.954 µM
GI50 [15]: 0.156 µM
TGI [15]: 1.41 µM
GI50 [16]: 0.142 µM
TGI [16]: 2.18 µM
GI50 [17]: 0.129 µM
TGI [17]: 2.71 µM
GI50 [18]: 0.053 µM
TGI [18]: 2.64 µM
GI50 [19]: 0.32 µM
TGI [19]: 2.88 µM
GI50 [20]: 0.329 µM
TGI [20]: 2.88 µM
GI50 [21]: 0.195 µM
TGI [21]: 3.68 µM
GI50 [22]: 0.338 µM
TGI [22]: 1.54 µM
GI50 [23]: 0.161 µM
TGI [23]: 3.22 µM
GI50 [24]: 0.0238 µM
TGI [24]: 0.521 µM
GI50 [25]: 0.299 µM
TGI [25]: 1.17 µM
GI50 [26]: 0.13 µM
TGI [26]: 2.6 µM
GI50 [27]: 0.0715 µM
TGI [27]: 0.513 µM
GI50 [28]: 0.136 µM
TGI [28]: 2.38 µM
GI50 [29]: 0.104 µM
TGI [29]: 3.52 µM
GI50 [30]: 0.283 µM
TGI [30]: 1.26 µM
GI50 [31]: 0.495 µM
TGI [31]: 3.2 µM
GI50 [32]: 0.621 µM
TGI [32]: 2.89 µM
GI50 [33]: 0.416 µM
TGI [33]: 2.18 µM
GI50 [34]: 0.317 µM
TGI [34]: 3.15 µM
GI50 [35]: 0.0454 µM
TGI [35]: 0.147 µM
GI50 [36]: 0.0827 µM
TGI [36]: 3.1 µM
GI50 [37]: 0.121 µM
TGI [37]: 2.75 µM
GI50 [38]: 0.211 µM
TGI [38]: 1.36 µM
GI50 [39]: 0.243 µM
TGI [39]: 0.853 µM
GI50 [40]: 0.136 µM
TGI [40]: 2.92 µM
GI50 [41]: 0.671 µM
TGI [41]: 4.36 µM
GI50 [42]: 0.179 µM
TGI [42]: 1.41 µM
GI50 [43]: 0.279 µM
TGI [43]: 2.1 µM
GI50 [44]: 0.307 µM
TGI [44]: 2.68 µM
GI50 [45]: 0.516 µM
TGI [45]: 2.74 µM
GI50 [46]: 0.132 µM
TGI [46]: 2.26 µM
GI50 [47]: 0.398 µM
TGI [47]: 1.63 µM
GI50 [48]: 0.389 µM
TGI [48]: 3.55 µM
GI50 [49]: 0.669 µM
TGI [49]: 1.96 µM
GI50 [50]: 0.21 µM
TGI [50]: 3.04 µM
GI50 [51]: 0.322 µM
TGI [51]: 1.47 µM
GI50 [52]: 0.133 µM
TGI [52]: 1.82 µM
GI50 [53]: 0.249 µM
TGI [53]: 0.815 µM
GI50 [54]: 0.0722 µM
TGI [54]: 0.26 µM
GI50 [55]: 0.098 µM
TGI [55]: 1.89 µM
GI50 [56]: 0.323 µM
TGI [56]: 3.16 µM
GI50 [57]: 0.124 µM
TGI [57]: 2.44 µM

COc1cccc2c1C(=O)c1c(O)c3c(c(O)c1C2=O)C[C@](O)(C(=O)CO)C[C@H]3O[C@@H]1C[C@@H](NC(=O)CCCCCN(C)C2(c3ccc(F)cc3)CC3CCC2C3)[C@H](O)[C@@H](C)O1 (some centres undefined)
GI50 [1]: 3.28 µM
TGI [1]: 11.2 µM
GI50 [58]: 7.85 µM
TGI [58]: 17.7 µM
GI50 [2]: 7.85 µM
TGI [2]: 16.9 µM
GI50 [3]: 2.19 µM
TGI [3]: 9.11 µM
GI50 [5]: 7.65 µM
TGI [5]: 15.6 µM
GI50 [6]: 13 µM
TGI [6]: 50 µM
GI50 [7]: 3.48 µM
TGI [7]: 14.3 µM
GI50 [8]: 0.728 µM
TGI [8]: 1.65 µM
GI50 [9]: 1.18 µM
TGI [9]: 2.52 µM
GI50 [10]: 5.75 µM
TGI [10]: 14.5 µM
GI50 [11]: 1.11 µM
TGI [11]: 2.47 µM
GI50 [12]: 0.82 µM
TGI [12]: 1.61 µM
GI50 [13]: 0.931 µM
TGI [13]: 1.73 µM
GI50 [14]: 1.13 µM
TGI [14]: 3.92 µM
GI50 [15]: 8.67 µM
TGI [15]: 19.4 µM
GI50 [16]: 5.17 µM
TGI [16]: 13.1 µM
GI50 [18]: 1.75 µM
TGI [18]: 6.66 µM
GI50 [19]: 0.994 µM
TGI [19]: 2.06 µM
GI50 [20]: 7.25 µM
TGI [20]: 15.7 µM
GI50 [21]: 8.26 µM
TGI [21]: 21.6 µM
GI50 [22]: 5.3 µM
TGI [22]: 14.2 µM
GI50 [23]: 1.18 µM
TGI [23]: 3.94 µM
GI50 [24]: 6.82 µM
TGI [24]: 13.3 µM
GI50 [25]: 0.707 µM
TGI [25]: 1.57 µM
GI50 [26]: 6.1 µM
TGI [26]: 12.5 µM
GI50 [27]: 0.223 µM
TGI [27]: 1.64 µM
GI50 [28]: 0.76 µM
TGI [28]: 1.85 µM
GI50 [29]: 7.46 µM
TGI [29]: 14.7 µM
GI50 [30]: 3.49 µM
TGI [30]: 10.7 µM
GI50 [31]: 1.09 µM
TGI [31]: 2.69 µM
GI50 [32]: 6.48 µM
TGI [32]: 14.8 µM
GI50 [33]: 1 µM
TGI [33]: 2.63 µM
GI50 [34]: 6.59 µM
TGI [34]: 14.8 µM
GI50 [35]: 2.71 µM
TGI [35]: 10.5 µM
GI50 [36]: 0.729 µM
TGI [36]: 1.51 µM
GI50 [37]: 0.739 µM
TGI [37]: 1.49 µM
GI50 [38]: 6.68 µM
TGI [38]: 16.9 µM
GI50 [39]: 3.67 µM
TGI [39]: 10.3 µM
GI50 [40]: 1.13 µM
TGI [40]: 4.24 µM
GI50 [42]: 5.92 µM
TGI [42]: 12.4 µM
GI50 [43]: 5.38 µM
TGI [43]: 14.9 µM
GI50 [44]: 2.03 µM
TGI [44]: 10 µM
GI50 [45]: 1.41 µM
TGI [45]: 4.27 µM
GI50 [46]: 0.304 µM
TGI [46]: 2.61 µM
GI50 [47]: 1.03 µM
TGI [47]: 3.37 µM
GI50 [48]: 5.79 µM
TGI [48]: 13.3 µM
GI50 [49]: 5.36 µM
TGI [49]: 12.5 µM
GI50 [50]: 0.966 µM
TGI [50]: 2.7 µM
GI50 [51]: 0.899 µM
TGI [51]: 2.25 µM
GI50 [52]: 0.676 µM
TGI [52]: 1.5 µM
GI50 [53]: 6.56 µM
TGI [53]: 15.7 µM
GI50 [54]: 6.59 µM
TGI [54]: 16.1 µM
GI50 [55]: 0.611 µM
TGI [55]: 1.28 µM
GI50 [56]: 0.988 µM
TGI [56]: 2.19 µM
GI50 [57]: 0.555 µM
TGI [57]: 1.37 µM
